Measurements: ChEMBL document CHEMBL3856233, “Identification of (R)-(2-Chloro-3-(trifluoromethyl)phenyl)(1-(5-fluoropyridin-2-yl)-4-methyl-6,7-dihydro-1H-imidazo[4,5-c]pyridin-5(4H)-yl)methanone (JNJ 54166060), a Small Molecule Antagonist of the P2X7 receptor” (J Med Chem, 2016)
pIC50: −log10 of the molar value. In brackets after ≈: the same amount, converted by molar mass.

Experiments:
P2X purinoceptor 7 = biological target: T1, P2X purinoceptor 7 (Mus musculus, UniProt Q9Z1M0); assay: Antagonist activity at recombinant mouse P2X7 receptor expressed in human 1321N1 cells assessed as inhibition of Bz-ATP-induced Ca2+ flux preincubated for 30 mins followed by agonist addition measured after 180 sec by calcium-4 dye based FLIPR assay; format: cell-based
T1 sequence (Q9Z1M0 whole entry): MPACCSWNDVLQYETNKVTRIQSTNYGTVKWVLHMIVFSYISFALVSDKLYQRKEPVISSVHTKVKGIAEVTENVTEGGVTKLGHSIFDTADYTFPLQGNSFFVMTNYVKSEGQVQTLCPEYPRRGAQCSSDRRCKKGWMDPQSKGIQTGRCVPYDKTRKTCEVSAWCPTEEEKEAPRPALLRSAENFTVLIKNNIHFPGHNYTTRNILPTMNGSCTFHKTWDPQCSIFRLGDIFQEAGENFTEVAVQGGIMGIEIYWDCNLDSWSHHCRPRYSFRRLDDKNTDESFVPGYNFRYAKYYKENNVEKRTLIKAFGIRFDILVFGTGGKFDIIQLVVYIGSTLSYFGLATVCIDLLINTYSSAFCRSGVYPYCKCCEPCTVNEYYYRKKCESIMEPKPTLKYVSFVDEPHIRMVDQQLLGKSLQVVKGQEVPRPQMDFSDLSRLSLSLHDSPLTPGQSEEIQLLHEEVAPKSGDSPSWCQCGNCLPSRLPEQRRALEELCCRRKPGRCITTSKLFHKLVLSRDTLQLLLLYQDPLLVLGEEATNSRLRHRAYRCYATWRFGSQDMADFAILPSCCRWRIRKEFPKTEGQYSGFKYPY

[1] = Protein binding in human plasma at 1 uM after 6 hrs by LC/MS/MS based equilibrium dialysis method; format: ADME, cell-free; conditions: read-out: PPB (converted)
[2] = Protein binding in rat plasma at 1 uM after 6 hrs by LC/MS/MS based equilibrium dialysis method; format: ADME, cell-free; conditions: read-out: PPB (converted)
[3] = Protein binding in mouse plasma at 1 uM after 6 hrs by LC/MS/MS analysis; format: ADME, cell-free; conditions: read-out: PPB (converted)
Rattus norvegicus [4] = assay: Ex vivo receptor occupancy at P2X7 receptor in po dosed rat brain hippocampal tissue assessed as plasma concentration required for [3H]-(S)-7-(2-chloro-3-(trifluoromethyl)benzyl)-6-methyl-3-(pyrazin-2-yl)-6,7-dihydro-[1,2,4]triazolo[4,3-a]pyrazin-8(5H)-one displacement after 30 mins; format: functional, organism-based
Rattus norvegicus [5] = assay: Ex vivo receptor occupancy at P2X7 receptor in po dosed rat brain hippocampal tissue assessed as brain concentration required for [3H]-(S)-7-(2-chloro-3-(trifluoromethyl)benzyl)-6-methyl-3-(pyrazin-2-yl)-6,7-dihydro-[1,2,4]triazolo[4,3-a]pyrazin-8(5H)-one displacement after 30 mins; format: functional, organism-based
[6] = Clearance in Sprague-Dawley rat at 1 mg/kg, iv after 0.033 to 24 hrs by LC/MS/MS analysis; format: ADME, organism-based; conditions: in vivo
[7] = Volume of distribution at steady state in Beagle dog at 1 mg/kg, iv after 0.033 to 24 hrs by LC/MS/MS analysis; format: ADME, organism-based, Canis lupus familiaris; conditions: in vivo, read-out: Vdss
[8] = Volume of distribution at steady state in cynomolgus monkey at 1 mg/kg, iv after 0.033 to 24 hrs by LC/MS/MS analysis; format: ADME, organism-based, Macaca fascicularis; conditions: in vivo, read-out: Vdss
[9] = Cmax in cynomolgus monkey at 5 mg/kg, po after 0.033 to 24 hrs by LC/MS/MS analysis; format: ADME, organism-based, Macaca fascicularis; set-up: dose 5 mg/kg, route oral; conditions: in vivo
Rattus norvegicus [10] = assay: Toxicity in rat assessed as central lobular hepatocellular degeneration at 250 mg/kg/day, po administered for 4 days followed by necropsy on day 5 post treatment by histological analysis; format: organism-based; conditions: in vivo, 96 h
CYP3A4 = CYP3A4 (Homo sapiens, UniProt P08684); assay: Inhibition of CYP3A4 in human liver microsomes using midazolam as substrate assessed as reduction in 1-OH-midazolam formation at 10 uM by LC/MS/MS analysis; format: ADME; conditions: probe midazolam
CYP3A4, sequence (P08684 whole entry): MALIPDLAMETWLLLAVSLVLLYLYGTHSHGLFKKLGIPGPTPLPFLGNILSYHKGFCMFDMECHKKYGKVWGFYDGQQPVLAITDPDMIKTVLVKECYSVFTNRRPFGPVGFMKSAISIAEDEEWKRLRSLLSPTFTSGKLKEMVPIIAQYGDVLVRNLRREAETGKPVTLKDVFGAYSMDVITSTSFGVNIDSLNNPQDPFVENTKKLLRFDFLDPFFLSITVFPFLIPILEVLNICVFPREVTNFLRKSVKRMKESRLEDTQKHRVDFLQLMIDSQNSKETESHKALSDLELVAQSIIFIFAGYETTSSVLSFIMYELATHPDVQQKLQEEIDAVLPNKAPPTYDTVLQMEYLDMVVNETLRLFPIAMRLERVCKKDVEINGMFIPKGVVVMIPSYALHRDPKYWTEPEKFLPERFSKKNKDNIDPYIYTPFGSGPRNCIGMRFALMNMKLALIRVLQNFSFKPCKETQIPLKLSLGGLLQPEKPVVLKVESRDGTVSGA

[11] = Permeability from apical to basolateral side in human Caco2 cells at 10 uM after 60 mins by LC/MS/MS analysis; format: ADME, cell-based; conditions: Caco-2, read-out: permeability

C[C@@H]1c2ncn(-c3ccc(F)cn3)c2CCN1C(=O)c1cccc(C(F)(F)F)c1Cl
pIC50 (P2X purinoceptor 7): 7.14
fraction unbound at 6 h, 1 µM [1]: 0.055
fraction unbound at 6 h, 1 µM [2]: 0.051
fraction unbound at 6 h, 1 µM [3]: 0.045
fIC50 (Rattus norvegicus [4]): 15 nM
EC50 (Rattus norvegicus [4]; Rattus norvegicus, P2X7, Brain/Plasma): 0.125 µg/mL (≈ 0.285 µM)
fIC50 (Rattus norvegicus [5]): 12 nM
EC50 (Rattus norvegicus [5]; Rattus norvegicus, P2X7): 0.362 µg/mL (≈ 0.825 µM)
clearance [6]: 30 mL/min/kg
Vd [7]: 3.6 L/kg
Vd [8]: 2.1 L/kg
Cmax [9]: 389 ng/mL
Activity (Rattus norvegicus [10]): Toxic
inhibition at 10 µM (CYP3A4): 74%
Papp A→B at 1 h, 10 µM [11]: 65 ×10⁻⁶ cm/s
